From ChEMBL document CHEMBL4706653, “Ultra-short lipopeptides against gram-positive bacteria while alleviating antimicrobial resistance” (Eur J Med Chem, 2021)
In brackets after ≈: the same amount, converted by molar mass. Activity calls are given as the source filed them. No cut-off for these calls is given here. Residues, ends and D or L forms follow the SMILES beside them. *: point of attachment. Stearoyl = CCCCCCCCCCCCCCCCCC(=O)*; Palmitoyl = CCCCCCCCCCCCCCCC(=O)*

What was measured:
Staphylococcus aureus [1] = assay: Antimicrobial activity against Staphylococcus aureus ATCC 25923 after 18 hrs by broth microdilution method; type: functional
[2] = Therapeutic index, ratio of MHC for mouse RBC to geometric mean of peptide MIC for Staphylococcus epidermidis ATCC 12228; type: toxicity; conditions: pooled result: one value given for 6 cell lines, strains, targets or settings, read-out: TI
Staphylococcus aureus [3] = assay: Antimicrobial activity against Staphylococcus aureus ATCC 29213 after 18 hrs by broth microdilution method; type: functional
Staphylococcus aureus [4] = assay: Antimicrobial activity against methicillin-resistant Staphylococcus aureus 113 after 18 hrs by broth microdilution method; type: functional
[5] = test system: Staphylococcus epidermidis; assay: Antimicrobial activity against Staphylococcus epidermidis ATCC 12228 after 18 hrs by broth microdilution method; type: functional
Staphylococcus aureus [6] = assay: Antimicrobial activity against methicillin-resistant Staphylococcus aureus 75 after 18 hrs by broth microdilution method; type: functional
Bacillus subtilis = assay: Antimicrobial activity against Bacillus subtilis ATCC 23857 after 18 hrs by broth microdilution method; type: functional
Erythrocyte = assay: Hemolytic activity against mouse erythrocytes measured after 1 hr; type: ADME, cell-based
Cell membrane [7] = assay: Induction of cytoplasmic membrane disruption in Staphylococcus aureus ATCC 25923 measured for 15 mins by DiSC3-5 dye based fluorescence assay
Staphylococcus aureus [8] = assay: Antimicrobial activity against Staphylococcus aureus ATCC 25923 infected in neutropenia BALB/c mouse assessed as reduction in bacterial load in spleen at 10 to 20 mg/kg, ip administered staring from 2 hrs post infection and measured 8 hrs post-infected; type: functional, organism-based; conditions: dose 10-20 mg/kg, time 6.0 hrs
Staphylococcus aureus [9] = assay: Induction of reactive oxygen species generation in Staphylococcus aureus ATCC 25923 by […] dye based fluorescence assay; type: functional, organism-based
[10] = Binding affinity to LTA (unknown origin) assessed as bacterial killing at 2 times MIC preincubated for 1 hr followed by Staphylococcus aureus ATCC 25923 addition and measured after 2 hrs by colony counting method; conditions: time 3.0 hrs
Mus musculus = assay: Antiinflammatory activity in Staphylococcus aureus ATCC 25923 infected neutropenia BALB/c mouse assessed as reduction in TNFalpha level in serum at 10 to 20 mg/kg, ip administered staring from 2 hrs post infection and measured 8 hrs post-infected; type: functional, organism-based; conditions: dose 10-20 mg/kg, time 6.0 hrs
Cell membrane [11] = assay: Induction of membrane disruption in Staphylococcus aureus ATCC 25923 measured after 2 hrs by propidium iodide staining based flow cytometry
Staphylococcus aureus [12] = assay: Antibiofilm activity against ciprofloxacin-resistant Staphylococcus aureus ATCC 25923 at 0.5 to 8 uM after 24 hrs by crystal violet staining based assay; type: functional, organism-based; conditions: dose 0.5-8 µM
Staphylococcus aureus [13] = assay: Antimicrobial activity against Staphylococcus aureus ATCC 25923 infected in neutropenia BALB/c mouse assessed as reduction in bacterial load in kidney at 10 to 20 mg/kg, ip administered staring from 2 hrs post infection and measured 8 hrs post-infected; type: functional, organism-based; conditions: dose 10-20 mg/kg, time 6.0 hrs
Staphylococcus aureus [14] = assay: Antibiofilm activity against Staphylococcus aureus ATCC 25923 at 0.5 to 8 uM after 24 hrs by crystal violet staining based assay; type: functional, organism-based; conditions: dose 0.5-8 µM
Lipopolysaccharide (LPS) = assay: Binding affinity to LPS (unknown origin) assessed as bacterial killing at 2 times MIC preincubated for 1 hr followed by Staphylococcus aureus ATCC 25923 addition and measured after 2 hrs by colony counting method; conditions: time 3.0 hrs
Cell membrane [15] = assay: Induction of membrane disruption in Staphylococcus aureus ATCC 25923 measured after 2 hrs by propidium iodide staining based confocal laser scanning microscopic analysis; type: subcellular
Staphylococcus aureus [16] = assay: Induction of nucleic acid leakage in Staphylococcus aureus ATCC 25923 at 4 times MIC; type: functional
Staphylococcus aureus [17] = assay: Antimicrobial activity against Staphylococcus aureus ATCC 25923 assessed as bacterial killing preincubated for 4 hrs followed by replating on MHB agar and measured after 24 hrs by time kill assay; type: functional, organism-based; conditions: time 28.0 hrs
Staphylococcus aureus [18] = assay: Antimicrobial activity against Staphylococcus aureus ATCC 25923 infected in neutropenia BALB/c mouse assessed as reduction in bacterial load in liver at 10 to 20 mg/kg, ip administered staring from 2 hrs post infection and measured 8 hrs post-infected; type: functional, organism-based; conditions: dose 10-20 mg/kg, time 6.0 hrs
Staphylococcus aureus [19] = assay: Antimicrobial activity against Staphylococcus aureus ATCC 25923 infected in neutropenia BALB/c mouse assessed as reduction in lung bacterial load at 10 to 20 mg/kg, ip administered staring from 2 hrs post infection and measured 8 hrs post-infected; type: functional, organism-based; conditions: dose 10-20 mg/kg, time 6.0 hrs

SMILES | MIC (Staphylococcus aureus [1]) | selectivity ratio [2] | MIC (Staphylococcus aureus [3]) | MIC (Staphylococcus aureus [4]) | MIC [5] | MIC (Staphylococcus aureus [6]) | MIC (Bacillus subtilis) | MHC10 (Erythrocyte) | further results
CCCCCCCCCCCCCCCC(=O)N[C@@H](CCCNC(=N)N)C(=O)N[C@@H](CCCNC(=N)N)C(=O)N[C@@H](CCCNC(=N)N)C(N)=O (Palmitoyl-Arg-Arg-Arg-NH2) | 8 µM (≈ 5.79 µg/mL) | 5.83 | 32 µM (≈ 23.2 µg/mL) | 2 µM (≈ 1.45 µg/mL) | 8 µM (≈ 5.79 µg/mL) | 8 µM (≈ 5.79 µg/mL) | 8 µM (≈ 5.79 µg/mL) | 64 µM | 
CCCCCCCCCCCCCCCC(=O)N[C@@H](CCCNC(=N)N)C(=O)N[C@@H](CCCNC(=N)N)C(=O)N[C@@H](Cc1c[nH]c2ccccc12)C(N)=O (Palmitoyl-Arg-Arg-Trp-NH2) | 8 µM (≈ 6.03 µg/mL) | 5.05 | 8 µM (≈ 6.03 µg/mL) | 2 µM (≈ 1.51 µg/mL) | 8 µM (≈ 6.03 µg/mL) | 8 µM (≈ 6.03 µg/mL) | 4 µM (≈ 3.02 µg/mL) | 32 µM | 
CCCCCCCCCCCCCCCC(=O)N[C@@H](CCCNC(=N)N)C(=O)N[C@@H](Cc1c[nH]c2ccccc12)C(=O)N[C@@H](CCCNC(=N)N)C(N)=O (Palmitoyl-Arg-Trp-Arg-NH2) | 8 µM (≈ 6.03 µg/mL) | 7.38 | 16 µM (≈ 12.1 µg/mL) | 4 µM (≈ 3.02 µg/mL) | 8 µM (≈ 6.03 µg/mL) | 8 µM (≈ 6.03 µg/mL) | 8 µM (≈ 6.03 µg/mL) | 64 µM | 
CCCCCCCCCCCCCCCC(=O)N[C@@H](CCCNC(=N)N)C(=O)N[C@@H](Cc1c[nH]c2ccccc12)C(=O)N[C@@H](Cc1c[nH]c2ccccc12)C(N)=O (Palmitoyl-Arg-Trp-Trp-NH2) | 16 µM (≈ 12.5 µg/mL) | 18.3 | 32 µM (≈ 25.1 µg/mL) | 8 µM (≈ 6.27 µg/mL) | 16 µM (≈ 12.5 µg/mL) | 32 µM (≈ 25.1 µg/mL) | 64 µM (≈ 50.2 µg/mL) | > 256 µM | 
CCCCCCCCCCCCCCCC(=O)N[C@@H](Cc1c[nH]c2ccccc12)C(=O)N[C@@H](CCCNC(=N)N)C(=O)N[C@@H](CCCNC(=N)N)C(N)=O (Palmitoyl-Trp-Arg-Arg-NH2) | 8 µM (≈ 6.03 µg/mL) | 4 | 8 µM (≈ 6.03 µg/mL) | 8 µM (≈ 6.03 µg/mL) | 8 µM (≈ 6.03 µg/mL) | 8 µM (≈ 6.03 µg/mL) | 8 µM (≈ 6.03 µg/mL) | 32 µM | 
CCCCCCCCCCCCCCCCCC(=O)N[C@@H](CCCNC(=N)N)C(=O)N[C@@H](CCCNC(=N)N)C(=O)N[C@@H](CCCNC(=N)N)C(N)=O (Stearoyl-Arg-Arg-Arg-NH2) | 4 µM (≈ 3.01 µg/mL) | 4 | 4 µM (≈ 3.01 µg/mL) | 2 µM (≈ 1.5 µg/mL) | 8 µM (≈ 6.02 µg/mL) | 4 µM (≈ 3.01 µg/mL) | 8 µM (≈ 6.02 µg/mL) | 32 µM | 
CCCCCCCCCCCCCCCCCC(=O)N[C@@H](CCCNC(=N)N)C(=O)N[C@@H](CCCNC(=N)N)C(=O)N[C@@H](Cc1c[nH]c2ccccc12)C(N)=O (Stearoyl-Arg-Arg-Trp-NH2) | 8 µM (≈ 6.26 µg/mL) | 3.69 | 8 µM (≈ 6.26 µg/mL) | 8 µM (≈ 6.26 µg/mL) | 4 µM (≈ 3.13 µg/mL) | 16 µM (≈ 12.5 µg/mL) | 8 µM (≈ 6.26 µg/mL) | 32 µM | 
CCCCCCCCCCCCCCCCCC(=O)N[C@@H](CCCNC(=N)N)C(=O)N[C@@H](Cc1c[nH]c2ccccc12)C(=O)N[C@@H](CCCNC(=N)N)C(N)=O (Stearoyl-Arg-Trp-Arg-NH2) | 16 µM (≈ 12.5 µg/mL) | 1.04 | 128 µM (≈ 100 µg/mL) | 8 µM (≈ 6.26 µg/mL) | 8 µM (≈ 6.26 µg/mL) | 8 µM (≈ 6.26 µg/mL) | 16 µM (≈ 12.5 µg/mL) | 32 µM | 
CCCCCCCCCCCCCCCCCC(=O)N[C@@H](CCCNC(=N)N)C(=O)N[C@@H](Cc1c[nH]c2ccccc12)C(=O)N[C@@H](Cc1c[nH]c2ccccc12)C(N)=O (Stearoyl-Arg-Trp-Trp-NH2) | > 128 µM | 1.09 | > 128 µM | > 128 µM | 128 µM (≈ 104 µg/mL) | > 128 µM | > 128 µM | 256 µM | 
CCCCCCCCCCCCCCCCCC(=O)N[C@@H](Cc1c[nH]c2ccccc12)C(=O)N[C@@H](CCCNC(=N)N)C(=O)N[C@@H](CCCNC(=N)N)C(N)=O (Stearoyl-Trp-Arg-Arg-NH2) | 16 µM (≈ 12.5 µg/mL) | 2 | 32 µM (≈ 25 µg/mL) | 16 µM (≈ 12.5 µg/mL) | 8 µM (≈ 6.26 µg/mL) | 8 µM (≈ 6.26 µg/mL) | 16 µM (≈ 12.5 µg/mL) | 32 µM | 
O=C(O)c1cn(C2CC2)c2cc(N3CCNCC3)c(F)cc2c1=O [CIPROFLOXACIN] | 1 µM (≈ 0.331 µg/mL) |  | 1 µM (≈ 0.331 µg/mL) | < 1 µM | < 1 µM | 128 µM (≈ 42.4 µg/mL) | < 1 µM |  | Activity (Cell membrane [7]): inactive; Activity (Staphylococcus aureus [8]): Active; Activity (Staphylococcus aureus [9]): Active; Activity [10]: inactive; Activity (Mus musculus): Active; Activity (Cell membrane [11]): inactive; Activity (Staphylococcus aureus [12]): Active; Activity (Staphylococcus aureus [13]): Active; Activity (Staphylococcus aureus [14]): Active; Activity (Lipopolysaccharide (LPS)): inactive; Activity (Cell membrane [15]): inactive; Activity (Staphylococcus aureus [16]): Active; Activity (Staphylococcus aureus [17]): inactive; Activity (Staphylococcus aureus [18]): Active; Activity (Staphylococcus aureus [19]): Active
